Reference: PMC7408072 (Pharmaceutics, 2020)
Peptide text beside a SMILES is read from it. * marks the point of attachment. 5TAMRA = CN(C)c1ccc2c(c1)Oc1cc(N(C)C)ccc1C21OC(=O)c2cc(C(=O)*)ccc21

Tests used:
Tissue distribution = type: in vivo, NMRI mice
Experimental: Following 1 h of circulation, the mice were deeply anesthetized by i.p. injection of 0.05 mL/10 g body weight Ketaminol/Dexdormitor (2.25 mg ketamine/0.03 mg […] per 10 g body weight in 0.9% NaCl). The chest cage was opened and the mice transcardially perfused with 0.01 M PBS (pH 7.4) prior to isolation of the brain, heart, lungs, spleen, kidney, liver, and 2 cm of the upper part of the intestine. All tissues were immediately put on ice and kept at −80 °C until analysis.
The tissues were homogenized in 1 mL of ice-cold lysis buffer using a 7-mL Dounce tissue grinder set (Merck, St. Louis, MO, USA). Homogenates were left on ice for 10 min prior to centrifugation at 14,000× g and 4 °C for 10 min. Supernatants (100 µL) were transferred to a black clear-bottom 96-well plate for quantification of the TAMRA-peptides using a NovoStar fluorescence plate reader (BMG Labtech, Offenburg, Germany) with excitation and emission set to 542 and 568 nm, respectively. The molar peptide amounts were calculated using standard curves that were freshly prepared in lysates from relevant blank tissue at concentrations ranging from 30 nM to 2 µM.

[1] = tested on: primary mouse BCECs in co-culture with primary rat astrocytes; assay: Transport and cellular accumulation (mouse BBB model); type: in vitro ADME; settings: 100 µM peptide, 3 h, TAMRA fluorescence; for transendothelial permeation of the mouse BBB model compared to TAMRA-NR2B9c: N = 3, n = 3 (Figure S5A); for accumulation in the cell fraction of the mouse BBB model compared to TAMRA-NR2B9c: lysate, N = 3, n = 3 (Figure S5B)
Experimental: Generation of mouse BCEC monolayers in co-culture with rat astrocytes: the capillary fragments were allowed to settle for 2–3 h before changing the media to DMEM containing 10% FBS and pyromycin (4 µg/mL). On day 3, the media was changed to DMEM containing 10% FBS and rat astrocytes seeded on the bottom of collagen and fibronectin coated (both 0.01 mg/mL in PBS) Transwell® plate permeable supports (120,000 cells/1.12 cm^2 support with 0.4 µm pore size). On day 5, the media in the Transwell® plate was changed to Complete Mouse Endothelial Cell Medium (PELOBiotech, Planegg/Martinsried, Germany). The endothelial cells were detached from the flask using trypsin-EDTA. The remaining trypsin-EDTA was removed by centrifugation in DMEM containing 10% FBS at 500× g for 5 min at room temperature. The endothelial cells were re-suspended in Complete Mouse Endothelial Cell Medium and seeded on the apical side of the Transwell® plate permeable supports (100,000 cells/support). On day 8, the medium was changed to differentiation medium. On day 10, the mouse BBB model was ready for use as evident by the measured transendothelial electrical resistance (TEER) values for each filter prior experimental start.
(§1) Transport across bovine or mouse BCEC monolayers co-cultured with rat astrocytes was carried out over 3 h at 37 °C with horizontal shaking (90 rpm). TEER was measured at room temperature using an Endohm 12 cup (World Precision Instruments, Sarasota, FL, USA) connected to a Millicell-ERS device (Millipore, Bedford, MA, USA). TEER was measured before application of the peptides and after each experiment. The bovine model had initial TEER values ranging from 771 to 1332 Ω·cm^2, whereas the mouse model had initial TEER values ranging from 136 to 217 Ω·cm^2.
The withdrawn volume was replaced with media.
Transported peptide was calculated based on fluorescence using the same method as described for peptides applied to the bovine model. Subsequently, the peptide solutions were removed from the cells and the filters washed thrice with 4 °C hHBSS. To isolate the peptides accumulated in the cell fraction, the filter inserts were cut out and 250 µL of ice-cold lysis buffer added. The peptides were retrieved and quantified as described for the cell uptake fraction obtained following the permeation study using the bovine model.

[2] = tested on: bovine BCECs co-cultured with rat astrocytes; assay: Peptide uptake into endothelial cells and astrocytes by confocal microscopy after fixation (bovine BBB model); type: cell-based; settings: fixed cells; for peptide uptake in the astrocytes, 3 h: 100 µM peptide applied luminally; for peptide uptake in the astrocytes, 3 h / peptide uptake in the endothelial cells, 3 h: TAMRA fluorescence, confocal microscopy; for peptide uptake in the astrocytes, 15 min / peptide uptake in the endothelial cells, 15 min / peptide uptake in the endothelial cells, 3 h: 100 µM peptide; for peptide uptake in the astrocytes, 15 min / peptide uptake in the endothelial cells, 15 min: confocal microscopy (Figure S3)
Experimental: as §1, with “Transport across bovine or mouse BCEC monolayers co-cultured with rat astrocytes was carried out over 3 h at 37 °C with horizontal shaking (90 rpm).” left out
To visualize the TAMRA-peptide taken up by the endothelial cells and astrocytes, the remaining filters (one per batch) from the permeation study using the in vitro bovine BBB model were prepared for confocal microscopy. After removal of the peptide solutions, the cells were fixed with 3% paraformaldehyde in PBS for 15 min at room temperature with horizontal shaking (90 rpm). The cells were washed thrice with PBS prior to permeabilization in 0.1% Triton X-100 in PBS for 5 min and blocking in 2% BSA in PBS for 30 min at room temperature with horizontal shaking (90 rpm). The filter inserts were cut out, divided into smaller pieces, and transferred to a 48-well plate to stain zonula ocludens-1 (ZO-1) in the BCECs and F-actin in the astrocytes. Filter pieces with BCECs facing upwards were incubated with a primary antibody directed against ZO-1 (1:100 in PBS with 2% BSA; Thermo Fischer Scientific, Bedford, MA, USA, no. 617300) for 2 h at room temperature. Subsequently, the filters were washed thrice for 5 min in PBS with 2% BSA prior to 30 min incubation with an Alexa-488-conjugated secondary antibody (1:100 in PBS with 2% BSA; Thermo Fischer Scientific, Bedford, MA, USA, no. A11008). Filter pieces with astrocytes facing upwards were incubated with Alexa-488-conjugated phalloidin (1:133 in PBS with 2% BSA; Thermo Fischer Scientific, Bedford, MA, USA) for 30 min at room temperature and washed thrice for 5 min in PBS with 2% BSA. The filter pieces were mounted on glass slides under coverslips using Immu-Mount™ mounting media and imaged using single wavelength excitation a Zeiss 510 laser-scanning confocal microscope (Carl Zeiss, Jena, Germany).

[3] = tested on: filter-grown BCECs co-cultured with rat astrocytes; assay: Cellular viability, XTT assay; type: cell-based; settings: 100 µM peptide, 3 h, bovine BCEC/rat astrocyte co-culture, N = 3, n = 3
Experimental: Briefly, the XTT labelling mixture was prepared by mixing electron coupling reagent with XTT labelling reagent at a 1:50 ratio. After peptide incubation, the monolayers were washed twice with 37 °C hHBSS. We applied 300 µL and 1 mL 37 °C hHBSS to the apical and basolateral compartments, respectively, prior to the addition of 150 µL XTT labelling mixture. The filters were incubated at 37 °C with horizontal shaking (90 rpm) for 1 h. Two 100 µL samples were withdrawn from the apical compartments and the absorbance measured at 466 nm using a SPECTROstar Nano plate reader (BMG Labtech, Offenburg, Germany). The relative cell viability was calculated as follows: Relative viability (%)=Asample−ASDS/Abuffer−ASDS×100% where Asample is the absorbance of the test sample, ASDS is the absorbance of the negative control (100% dead cells), and Abuffer is the absorbance of the positive control (100% viable cells).

[4] = 3 nmol/g i.v., 1 h, NMRI mice, comparison among the Tat-conjugates

Question: With `CN(C)c1ccc2c(c1)Oc1cc(N(C)C)ccc1C21OC(=O)c2cc(C(=O)N[C@@H](Cc3ccc(O)cc3)C(=O)NCC(=O)N[C@@H](CCCNC(=N)N)C(=O)N[C@@H](CCCCN)C(=O)N[C@@H](CCCCN)C(=O)N[C@@H](CCCNC(=N)N)C(=O)N[C@@H](CCCNC(=N)N)C(=O)N[C@@H](CCC(N)=O)C(=O)N[C@@H](CCCNC(=N)N)C(=O)N[C@@H](CCCNC(=N)N)C(=O)N[C@@H](CCCNC(=N)N)C(=O)O)ccc21` [TAMRA-Tat] as the compound, how does the “amount in mouse brain homogenate” value (Tissue distribution; 3 nmol peptide/g body weight, tail vein, 1 h circulation, perfused NMRI mice, TAMRA fluorescence in whole tissue homogenate, mean ± SD, N = 4-6) read?
Answer: 0.4% ± 0.1%

Question: What about the “accumulation in the intestines” value (Tissue distribution; [4]) of the same compound?
Answer: superior

Question: What about the “TAMRA fluorescence in the brain homogenates (comparison)” value (Tissue distribution; 3 nmol/g i.v., 1 h, NMRI mice, unpaired t-test) of the same compound?
Answer: slightly higher levels

Question: And the “transendothelial permeation of the mouse BBB model compared to TAMRA-NR2B9c” value [1]?
Answer: similar

Question: And the “accumulation in the cell fraction of the mouse BBB model compared to TAMRA-NR2B9c” value [1]?
Answer: to a greater extent than TAMRA-NR2B9c

Question: And the “peptide uptake in the astrocytes, 3 h” value [2]?
Answer: observed in both cell types

Question: And the “peptide uptake in the astrocytes, 15 min” value [2]?
Answer: uptake

Question: What about the “peptide uptake in the endothelial cells, 15 min” value [2] of the same compound?
Answer: uptake

Question: And the “peptide uptake in the endothelial cells, 3 h” value [2]?
Answer: observed in both cell types

Question: And the “cell viability compared to media-treated control cells” value [3]?
Answer: slight, but non-significant, decrease

Question: For `CC[C@H](C)[C@H](NC(=O)[C@H](CO)NC(=O)[C@H](CO)NC(=O)[C@H](CC(C)C)NC(=O)[C@H](CCCCN)NC(=O)c1ccc2c(c1)C(=O)OC21c2ccc(N(C)C)cc2Oc2cc(N(C)C)ccc21)C(=O)N[C@@H](CCC(=O)O)C(=O)N[C@@H](CO)C(=O)N[C@@H](CC(=O)O)C(=O)N[C@H](C(=O)O)C(C)C` [TAMRA-NR2B9c] (5TAMRA-KLSSIESDV-OH), which “peptide uptake in the astrocytes, 3 h” value [2] is on record?
Answer: not observed

Question: What about the “peptide uptake in the endothelial cells, 3 h” value [2] of the same compound?
Answer: not observed

Question: And the “cell viability compared to media-treated control cells” value [3]?
Answer: did not decrease cell viability

Question: What does the source list for `CC[C@H](C)[C@H](NC(=O)[C@H](CO)NC(=O)[C@H](CO)NC(=O)[C@H](CC(C)C)NC(=O)[C@H](CCCCN)NC(=O)[C@H](CCCNC(=N)N)NC(=O)[C@H](CCCNC(=N)N)NC(=O)[C@H](CCCNC(=N)N)NC(=O)[C@H](CCC(N)=O)NC(=O)[C@H](CCCNC(=N)N)NC(=O)[C@H](CCCNC(=N)N)NC(=O)[C@H](CCCCN)NC(=O)[C@H](CCCCN)NC(=O)[C@H](CCCNC(=N)N)NC(=O)CNC(=O)[C@H](Cc1ccc(O)cc1)NC(=O)c1ccc2c(c1)C(=O)OC21c2ccc(N(C)C)cc2Oc2cc(N(C)C)ccc21)C(=O)N[C@@H](CCC(=O)O)C(=O)N[C@@H](CO)C(=O)N[C@@H](CC(=O)O)C(=O)N[C@H](C(=O)O)C(C)C` [TAMRA-Tat-NR2B9c] (5TAMRA-YGRKKRRQRRRKLSSIESDV-OH)?
Answer: accumulation in the liver (Tissue distribution; [4]): to a greater extent than TAMRA-Tat and TAMRA-Tat-N-dimer; transendothelial permeation of the mouse BBB model compared to TAMRA-NR2B9c [1]: to a greater extent than TAMRA-NR2B9c; accumulation in the cell fraction of the mouse BBB model compared to TAMRA-NR2B9c [1]: to a greater extent than TAMRA-NR2B9c; peptide uptake in the astrocytes, 3 h [2]: observed in both cell types; peptide uptake in the astrocytes, 15 min [2]: uptake; peptide uptake in the endothelial cells, 15 min [2]: uptake; peptide uptake in the endothelial cells, 3 h [2]: observed in both cell types; cell viability compared to media-treated control cells [3]: slight, but non-significant, decrease

Question: What does the source list for `CC[C@H](C)[C@H](NC(=O)CCOCCOCCN(CCOCCOCCC(=O)N[C@H](C(=O)N[C@@H](CCC(=O)O)C(=O)N[C@H](C(=O)N[C@@H](CC(=O)O)C(=O)N[C@H](C(=O)O)C(C)C)[C@@H](C)O)[C@@H](C)CC)C(=O)[C@H](CCCNC(=N)N)NC(=O)[C@H](CCCNC(=N)N)NC(=O)[C@H](CCCNC(=N)N)NC(=O)[C@H](CCC(N)=O)NC(=O)[C@H](CCCNC(=N)N)NC(=O)[C@H](CCCNC(=N)N)NC(=O)[C@H](CCCCN)NC(=O)[C@H](CCCCN)NC(=O)[C@H](CCCNC(=N)N)NC(=O)CNC(=O)[C@H](Cc1ccc(O)cc1)NC(=O)c1ccc2c(c1)C(=O)OC21c2ccc(N(C)C)cc2Oc2cc(N(C)C)ccc21)C(=O)N[C@@H](CCC(=O)O)C(=O)N[C@H](C(=O)N[C@@H](CC(=O)O)C(=O)N[C@H](C(=O)O)C(C)C)[C@@H](C)O` [TAMRA-Tat-N-dimer]?
Answer: TAMRA fluorescence in the kidney (Tissue distribution; [4]): more fluorescence in the kidney than TAMRA-Tat or TAMRA-Tat-NR2B9c; tissue uptake at 1 h (Tissue distribution; male, NMRI, mouse, brain, iv, 3 nmol/g body weight, mice, tissue distribution (abstract), read-out: brain accumulation): 0.25 %ID/g; transendothelial permeation of the mouse BBB model compared to TAMRA-NR2B9c [1]: lower; peptide uptake in the astrocytes, 3 h [2]: not in the astrocytes; peptide uptake in the astrocytes, 15 min [2]: not in the astrocytes; peptide uptake in the endothelial cells, 15 min [2]: Minor uptake; peptide uptake in the endothelial cells, 3 h [2]: low level; cell viability compared to media-treated control cells [3]: slight, but non-significant, decrease
